# Legend:
# Assay in all cases: relative viability (nuclei count vs DMSO), 5 days (fraction); higher = more cells survive
# [1] = compound: C1CCC(CC1)N(CCNCCC2=C3C(=C(C=C2)O)NC(=O)CO3)C(=O)CCNCCC4=CC(=C(C=C4)Cl)Cl [AZ505] + COc1cccc2cc(-c3nc([C@H]4CC[C@H](C(=O)O)CC4)n4ncnc(N)c34)[nH]c12 [OSI-027] (partner 0.5 µM)
# Summary of the method: (§1)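 Five library-drug doses in √10 steps were combined with a fixed anchor-drug dose, or a single drug was given alone, by pin tool to lung cancer cell lines in 1536-well plates the day after seeding. Nuclei were stained and counted after 5 days. Relative viability is the nuclei count in treated wells over that in vehicle wells, taken as the median of duplicate plates.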
# [2] = compound: C1CCC(CC1)N(CCNCCC2=C3C(=C(C=C2)O)NC(=O)CO3)C(=O)CCNCCC4=CC(=C(C=C4)Cl)Cl [AZ505] + O=C(CCCCCCC(=O)Nc1ccccc1)NO [Vorinostat] (partner 1 µM)
# Summary of the method: as §1
# [3] = compound: C1CCC(CC1)N(CCNCCC2=C3C(=C(C=C2)O)NC(=O)CO3)C(=O)CCNCCC4=CC(=C(C=C4)Cl)Cl [AZ505] + Nc1nc2[nH]cc(CCc3ccc(C(=O)N[C@@H](CCC(=O)O)C(=O)O)cc3)c2c(=O)[nH]1 [Pemetrexed] (partner 0.2 µM)
# Summary of the method: as §1
# [4] = compound: C1CCC(CC1)N(CCNCCC2=C3C(=C(C=C2)O)NC(=O)CO3)C(=O)CCNCCC4=CC(=C(C=C4)Cl)Cl [AZ505] + CS(=O)(=O)CCNCc1ccc(-c2ccc3ncnc(Nc4ccc(OCc5cccc(F)c5)c(Cl)c4)c3c2)o1 [Lapatinib] (partner 2 µM)
# Summary of the method: as §1
cell line,measurement,setting,value
UMC-11,relative viability,[1]; first compound 0.08 µM,0.413
same,relative viability,[1]; first compound 0.253 µM,0.53
same,relative viability,[1]; first compound 0.8 µM,0.452
same,relative viability,[1]; first compound 2.53 µM,0.476
same,relative viability,[1]; first compound 8 µM,0.492
same,relative viability,[2]; first compound 0.08 µM,0.371
same,relative viability,[2]; first compound 0.253 µM,0.433
same,relative viability,[2]; first compound 0.8 µM,0.367
same,relative viability,[2]; first compound 2.53 µM,0.434
same,relative viability,[2]; first compound 8 µM,0.397
same,relative viability,[3]; first compound 0.08 µM,0.757
same,relative viability,[3]; first compound 0.253 µM,0.714
same,relative viability,[3]; first compound 0.8 µM,0.705
same,relative viability,[3]; first compound 2.53 µM,0.901
same,relative viability,[3]; first compound 8 µM,0.894
same,relative viability,[4]; first compound 0.08 µM,0.86
same,relative viability,[4]; first compound 0.253 µM,0.943
same,relative viability,[4]; first compound 0.8 µM,0.901
same,relative viability,[4]; first compound 2.53 µM,1.11
same,relative viability,[4]; first compound 8 µM,0.976
